Measurements taken from US20040058868A1, “Methods for identification of compounds modulating insulin resistance” (priority 2002, published 2004).

Assays:
[1] = clinical trials in humans, reference [26]; cited from earlier work
[2] = test system: IRS-1 acetylation in MCF-7 cells; experiment: IRS-1 acetylation: immunoprecipitation with anti-IRS-1, western blot with anti-acetyl lysine antibodies; format: cell-based, human; settings: MCF-7 cells treated with TSA
Protocol: FIG. 2 illustrates immunoprecipitation of IRS-1 and detection of anti-acetyl-lysine. MCF-7 cells were treated as follows: lane 1: IGF-1 for 10 min; lane 2: IGF-1 for 30 min; lane 3: IGF-1 for 1 h; lane 4: IGF-1 for 6 h; lane 5: IGF-1 for 24 h; lane 6: PMA for 6 h; lane 7: PMA for 6 h and IGF-1 for 10 min; lane 8: PMA for 24 h; lane 9: PMA and TSA for 6 h; lane 10: TSA for 6 h; lane 11: control (vehicle).
(§1) To further validate the IRS-1/HDAC2 interaction, several mammalian cell lines were used. MCF-7 is a human breast adenocarcinoma cell line, HepG2 is a hepatocellular carcinoma cell line and L6 is a rat skeletal muscle cell line. The MCF-7 cell line was chosen since these cells have a high endogenous production of IRS-1. Cells were grown to confluency, treated with IGF-1 or PMA ([…]) for different lengths of time and then harvested in hypotonic cell lysis buffer (comprising 20 mM Hepes, pH 7.6, 20% glycerol, 10 mM NaCl, 1.5 mM MgCl2, 0.2 mM EDTA, 0.1% NP40, 25 mM NaF, 25 mM β-glycerophosphate, 1 mM DTT, 1 mM Na orthovanadate with protease inhibitors). All precleared fractions were matched for protein content and then immunoprecipitated with anti-IRS-1 antibody. […] A similar. experiment was performed the other way around, i.e. HDAC2 was immunoprecipitated from the cell extracts and the subsequent membrane was probed with anti-IRS-1 antibodies. […]

[3] = test system: IRS-1 tyrosine phosphorylation in MCF-7 cells; experiment: IRS-1 tyrosine phosphorylation: immunoprecipitation with anti-IRS-1, western blot with anti-phospho-tyrosine antibodies; format: cell-based, human; settings: insulin 10 min, FIG. 3
Protocol: FIG. 3 illustrates immunoprecipitation of IRS-1 and detection of antiphosphotyrosine. MCF-7 cells were treated as follows: lane 1: insulin 10 min; lane 2: PMA & TSA for 4 h and insulin 10 min; lane 3: PMA for 4 h and insulin 10 min; lane 4: PMA & TSA for 4 h; lane 5: PMA for 4 h; lane 6: control (vehicle);
as §1

IRS-1/HDAC2 interaction [4] = experiment: Coimmunoprecipitation of IRS-1 and HDAC2 in MCF-7 cells; format: cell-based, human; settings: MCF-7 cells treated with PMA; IP with anti-IRS-1 or anti-HDAC2
Protocol: To further validate the IRS-1/HDAC2 interaction, several mammalian cell lines were used. MCF-7 is a human breast adenocarcinoma cell line, HepG2 is a hepatocellular carcinoma cell line and L6 is a rat skeletal muscle cell line. The MCF-7 cell line was chosen since these cells have a high endogenous production of IRS-1. Cells were grown to confluency, treated with IGF-1 or PMA ([…]) for different lengths of time and then harvested in hypotonic cell lysis buffer (comprising 20 mM Hepes, pH 7.6, 20% glycerol, 10 mM NaCl, 1.5 mM MgCl2, 0.2 mM EDTA, 0.1% NP40, 25 mM NaF, 25 mM β-glycerophosphate, 1 mM DTT, 1 mM Na orthovanadate with protease inhibitors). All precleared fractions were matched for protein content and then immunoprecipitated with anti-IRS-1 antibody. […] A similar. experiment was performed the other way around, i.e. HDAC2 was immunoprecipitated from the cell extracts and the subsequent membrane was probed with anti-IRS-1 antibodies.

IRS-1/HDAC2 interaction [5] = experiment: Coimmunoprecipitation of IRS-1 and HDAC2 in HepG2 cells; format: cell-based; settings: stimulation with insulin
Protocol: To further validate the IRS-1/HDAC2 interaction, several mammalian cell lines were used. MCF-7 is a human breast adenocarcinoma cell line, HepG2 is a hepatocellular carcinoma cell line and L6 is a rat skeletal muscle cell line. The MCF-7 cell line was chosen since these cells have a high endogenous production of IRS-1. […] All precleared fractions were matched for protein content and then immunoprecipitated with anti-IRS-1 antibody. […] A similar. experiment was performed the other way around, i.e. HDAC2 was immunoprecipitated from the cell extracts and the subsequent membrane was probed with anti-IRS-1 antibodies.

IRS-1/HDAC2 interaction [6] = experiment: Coimmunoprecipitation of IRS-1 and HDAC2 in L6 cells; format: cell-based, rat; settings: stimulation with insulin
Protocol: To further validate the IRS-1/HDAC2 interaction, several mammalian cell lines were used. MCF-7 is a human breast adenocarcinoma cell line, HepG2 is a hepatocellular carcinoma cell line and L6 is a rat skeletal muscle cell line. The MCF-7 cell line was chosen since these cells have a high endogenous production of IRS-1. Cells were grown to confluency, […] cell lysis buffer (comprising 20 mM Hepes, pH 7.6, 20% glycerol, 10 mM NaCl, 1.5 mM MgCl2, 0.2 mM EDTA, 0.1% NP40, 25 mM NaF, 25 mM β-glycerophosphate, 1 mM DTT, 1 mM Na orthovanadate with protease inhibitors). All precleared fractions were matched for protein content and then immunoprecipitated with anti-IRS-1 antibody. […] A similar. experiment was performed the other way around, i.e. HDAC2 was immunoprecipitated from the cell extracts and the subsequent membrane was probed with anti-IRS-1 antibodies.

Compound: O=C(CCCCCCC(=O)Nc1ccccc1)NO [SAHA, suberoylanilide hydroxamic acid]
- tolerability / toxicity [1]: well-tolerated, are not toxic

Compound: CC(/C=C/C(=O)NO)=C\[C@@H](C)C(=O)c1ccc(N(C)C)cc1 [TSA, Trichostatin A]
- acetylation of IRS-1 ([2]; FIG. 2): significantly pronounced
- acetylation of IRS-1 ([2]; FIG. 2, listed as Trichostatin A): enhanced
- reversal of PMA-induced insulin resistance (tyrosine phosphorylation of IRS-1) ([3]; PMA and TSA simultaneously 4 h): insulin resistance can to a large extent be remedied

Compound: CCCCCCCCCCCCCC(=O)O[C@@H]1[C@@H](C)[C@@]2(O)[C@@H](C=C(CO)C[C@]3(O)C(=O)C(C)=C[C@@H]23)[C@@H]2C(C)(C)[C@]12OC(C)=O [PMA, phorbol myristic acid]
- insulin-stimulated tyrosine phosphorylation of IRS-1 (insulin resistance) ([3]; PMA 4 h): makes the cells insulin resistant
- interaction between IRS-1 and HDAC2 (coimmunoprecipitation) (IRS-1/HDAC2 interaction [4]): the interaction is PMA-driven

Compound: insulin: insulin used to stimulate cells
- interaction between IRS-1 and HDAC2 (coimmunoprecipitation) (IRS-1/HDAC2 interaction [5]): not influenced
- interaction between IRS-1 and HDAC2 (coimmunoprecipitation) (IRS-1/HDAC2 interaction [6]): not influenced
